Target: T1, hERG1 (Homo sapiens, UniProt Q12809)
T1 construct: expressed in transfected cells; host or cells: HEK 293
Assay: Whole cell patch-clamp of hERG1 currents in transfected HEK 293 cells
Format: cell-based
Parameters: Inactivation ΔV0.3: unit not given here
Settings: for Deactivation Δλ/λcon: deactivation time constant relative to baseline; for Activation V1/2 (mV): shift in voltage-dependence of activation; for Inactivation ΔV0.3: shift in voltage-dependence of inactivation; for Amplitude I/Icon: tail current relative to baseline
Protocol: Transfected HEK cells on glass cover slips were placed in a chamber mounted on a modified stage of an inverted microscope. The chamber was superfused at a rate of 2 mL/min with a normal external solution. The extracellular solution contained (in mM) NaCl 140, KCl 5.4, CaCl2 1, MgCl2 1, HEPES 5, glucose 5.5, pH 7.4, with NaOH. Micropipettes were pulled from borosilicate glass capillary tubes on a programmable horizontal puller (Sutter Instruments, Novato, CA). Standard patch-clamp methods were used to measure the whole cell currents of hERG1 mutants expressed in HEK 293 cells using the AXOPATCH 200B amplifier (Axon Instruments). Unless otherwise indicated, tail currents were recorded when the voltage was returned to −50 mV from +50 mV. Further details on electrophysiological methods are collected in Methods S1.
Electrophysiology Protocol:
The pipette solution contained the following (at mM concentration): KCl 10, K-aspartate 110, MgCl2 5, Na2ATP 5, EGTA 10, HEPES 5, and CaCl2 1. The solution was adjusted to pH 7.2 with KOH. The extracellular solution contained the following (at mM concentration): NaCl 140, KCl 5.4, CaCl2 1, MgCl2 1, HEPES 5, and glucose 5.5. The solution was adjusted to pH 7.4 with NaOH. For IKr measurements, the whole cell configuration of the patch clamp method was used. The series resistance was less than 7
MΩ. The data were sampled at 1 kHz. The holding potential was -80 mV. The activation of hERG tail currents was induced by depolarization to a range of potentials from +50 to -100 mV in 10 mV steps for 1 second. This was followed by repolarization to -100 mV for 1 second to record the tail currents.
-100 mV, a -120 mV 1 second pre-pulse was applied to completely close the hERG channels before subsequent depolarization. All of the tail currents reported in this manuscript represent dofetilide-sensitive currents. The inactivation of hERG was measured by a previously reported triple-pulse protocol5, 6. The holding potential was -80 mV. The hERG channel was first depolarized to +50 mV for 1 second. Recovery from inactivation was achieved using a short pulse (a 10 ms hyperpolarization) to -120 mV, followed by the application of test pulses from -100 to 0 mV for 1 second in 10 mV steps.
A voltage of -100 mV was selected because it was on the flat part of the inactivation-voltage relationship. The methods employed are identical to ones previously reported. […]

[1] = Conc. 50 µM, listed as MC-I-159b
[2] = Conc. 10 µM, listed as MC-I-153b
[3] = Conc. 50 µM, listed as MC-I-153b

T1 sequence (Q12809 whole entry): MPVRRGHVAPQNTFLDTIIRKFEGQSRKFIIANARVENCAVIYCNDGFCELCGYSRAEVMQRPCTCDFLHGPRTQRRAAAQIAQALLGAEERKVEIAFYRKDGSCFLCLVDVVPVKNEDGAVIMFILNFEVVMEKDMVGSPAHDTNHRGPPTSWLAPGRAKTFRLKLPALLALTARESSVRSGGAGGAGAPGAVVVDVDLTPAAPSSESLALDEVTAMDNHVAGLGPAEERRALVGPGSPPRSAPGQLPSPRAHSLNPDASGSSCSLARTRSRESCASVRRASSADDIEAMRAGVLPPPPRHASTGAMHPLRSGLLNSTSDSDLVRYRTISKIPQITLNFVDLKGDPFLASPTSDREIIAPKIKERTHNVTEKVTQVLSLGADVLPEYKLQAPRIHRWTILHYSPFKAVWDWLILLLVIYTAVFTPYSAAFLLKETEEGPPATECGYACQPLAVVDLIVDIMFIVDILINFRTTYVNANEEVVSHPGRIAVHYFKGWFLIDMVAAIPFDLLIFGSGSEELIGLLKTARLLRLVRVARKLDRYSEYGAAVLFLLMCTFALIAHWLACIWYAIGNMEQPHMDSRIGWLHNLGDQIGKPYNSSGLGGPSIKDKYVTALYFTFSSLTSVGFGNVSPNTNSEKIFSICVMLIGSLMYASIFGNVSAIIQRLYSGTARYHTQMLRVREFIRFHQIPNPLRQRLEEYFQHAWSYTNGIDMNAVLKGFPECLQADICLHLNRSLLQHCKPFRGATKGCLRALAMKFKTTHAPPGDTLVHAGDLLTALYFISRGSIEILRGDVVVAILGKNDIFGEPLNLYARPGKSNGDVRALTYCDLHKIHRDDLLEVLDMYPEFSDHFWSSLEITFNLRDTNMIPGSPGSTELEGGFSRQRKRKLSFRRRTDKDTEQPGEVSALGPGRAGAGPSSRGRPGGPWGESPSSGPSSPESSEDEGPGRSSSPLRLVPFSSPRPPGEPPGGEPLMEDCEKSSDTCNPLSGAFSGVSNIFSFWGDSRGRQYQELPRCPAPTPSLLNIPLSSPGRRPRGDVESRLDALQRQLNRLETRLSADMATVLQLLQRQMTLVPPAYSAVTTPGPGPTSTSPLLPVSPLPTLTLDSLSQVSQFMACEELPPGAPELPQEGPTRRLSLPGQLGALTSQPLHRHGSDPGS

Row | SMILES | Deactivation Δλ/λcon (Conc. 20 µM) | Activation V1/2 (mV) (Conc. 20 µM) | Inactivation ΔV0.3 (Conc. 20 µM) | Amplitude I/Icon (Conc. 20 µM) | Deactivation Δλ/λcon (Conc. 50 µM) | Activation V1/2 (mV) (Conc. 50 µM) | Inactivation ΔV0.3 (Conc. 50 µM) | Amplitude I/Icon (Conc. 50 µM) | further results
1 | COCOc1ccc(C(F)(F)F)cc1N [Compound 20] | – | – | – | – | – | – | – | – | Deactivation Δλ/λcon (Conc. 5 µM): 0.03±0.01; Activation V1/2 (mV) (Conc. 5 µM): −2.5±0.5 mV; Inactivation ΔV0.3 (Conc. 5 µM): 0±1; Deactivation Δλ/λcon (Conc. 100 µM): −0.06±0.2; Activation V1/2 (mV) (Conc. 100 µM): −3.3±1.3 mV; Inactivation ΔV0.3 (Conc. 100 µM): −1±0; Amplitude I/Icon (Conc. 100 µM): 0.9±0.04
2 | COCOc1ccc(C(F)(F)F)cc1NC(=O)NC(=O)[C@H](C)NC(=O)c1ccccc1 [Compound 11] | −0.1±0.2 | −12.7±2.7 | −1.5±1.5 | 0.6±0.04 | – | – | – | – | –
3 | CN(C(=O)c1cc(C(F)(F)F)ccc1Cl)c1ccccc1 [Compound 19] | – | – | – | – | −0.2±0.08 | 1±3 | −2±1 | 0.7±0.06 | Activation V1/2 (mV) (Conc. 5 µM): 0 mV; Amplitude I/Icon (Conc. 5 µM): 0.9±0.1
4 | COCOc1ccc(C(F)(F)F)cc1NC(=O)NC(=O)[C@H](C)NCc1ccc(C(F)(F)F)cc1 [Compound 10] | 0.5±0.03 | −13.7±3.2 | −12.3±3.4 | 0.4±0.02 | – | – | – | – | –
5 | C[C@H](NC(=O)c1ccccc1)C(=O)NC(=O)Nc1cc(C(F)(F)F)ccc1O [Compound 6] | 0.8±0.1 | −3.7±0.7 | −2.5±1.5 | 0.7±0.02 | – | – | – | – | –
6 | C[C@H](NC(=O)c1ccc([N+](=O)[O-])cc1)C(=O)NC(=O)Nc1cc(C(F)(F)F)ccc1O [Compound 7] | 0.6±0.3 | −7±1.1 | −3.5±4.5 | 0.6±0.1 | – | – | – | – | –
7 | C[C@H](NS(=O)(=O)c1ccc([N+](=O)[O-])cc1)C(=O)NC(=O)Nc1cc(C(F)(F)F)ccc1O [Compound 14] | – | – | – | – | 0.6±0.3 | −7.7±3.0 | 2.5±3.5 | 0.39±0.04 | Deactivation Δλ/λcon (Conc. 2 µM): 0.4±; Activation V1/2 (mV) (Conc. 2 µM): −3±0.02 mV; Amplitude I/Icon (Conc. 2 µM): 0.93±0.01; Amplitude I/Icon (Conc. 50 µM, listed as MC-I-169b): significantly more pharmacologic block
8 | C[C@H](NCc1ccccc1)C(=O)NC(=O)Nc1cc(C(F)(F)F)ccc1O [Compound 2] | 0.6±0.4 | −14.5±5.5 | −21±0.0 | 0.4±0.02 | – | – | – | – | –
9 | O=C1NC(=O)c2cc(C(F)(F)F)ccc21 [Compound 23] | – | – | – | – | 0.2±0.1 | −2.3±1.3 | −2±1.2 | 1.0±0.01 | –
10 | C[C@H](NCc1ccc(F)cc1)C(=O)NC(=O)Nc1cc(C(F)(F)F)ccc1O [Compound 3] | 1.7±0.3 | −17.3±0.3 | −7.5±4.5 | 0.6±0.14 | – | – | – | – | Deactivation Δλ/λcon (Conc. 2 µM): 1.7±0.3; Activation V1/2 (mV) (Conc. 2 µM): −17.3±0.3 mV; Inactivation ΔV0.3 (Conc. 2 µM): −7.5±4.5
11 | COCOc1ccc(C(F)(F)F)cc1NC(=O)Oc1ccccc1 [Compound 22] | – | – | – | – | −0.2±0.09 | −1.7±2.3 | 0±0 | 0.9±0.04 | –
12 | C[C@H](NS(=O)(=O)c1ccc(N)cc1)C(=O)NC(=O)Nc1cc(C(F)(F)F)ccc1O [Compound 13] | 0.3±0.1 | −5±3 | +8±0.4 | 1.0 | 0.5±0.1 | −2.5±3.0 | +10±0.6 | 1±0.03 | pharmacologic activity (1 µM): no pharmacologic activity; Activation V1/2 (mV) (Conc. 2 µM): −2±3 mV; Amplitude I/Icon (Conc. 2 µM): 1.0; Inactivation ΔV0.3 (Conc. 20 µM, listed as MC-I-159b): significantly shifted voltage-dependence of inactivation to depolarized potentials; Inactivation ΔV0.3 [1]: shifted the voltage-dependence of inactivation to depolarized potentials; Amplitude I/Icon [1]: did not produce pharmacological block
13 | COCOc1ccc(C(F)(F)F)cc1NC(=O)NC(=O)[C@H](C)N(Cc1ccccc1)Cc1ccccc1 [Compound 17] | – | – | – | – | 0.25±0.18 | −2±0 | +4±0 | 0.95±0.03 | Deactivation Δλ/λcon (Conc. 10 µM): 0.07±0.08; Activation V1/2 (mV) (Conc. 10 µM): −5±0.6 mV; Inactivation ΔV0.3 (Conc. 10 µM): −1±0.6
14 | CN(C(=O)c1cccc(C(F)(F)F)c1)c1ccccc1 [Compound 18] | – | – | – | – | −0.2±0.05 | 3.3±0.3 | −11.7±7.3 | 0.8±0.07 | –
15 | COCOc1ccc(C(F)(F)F)cc1NC(=O)NC(=O)[C@H](C)NS(=O)(=O)c1ccc([N+](=O)[O-])cc1 [Compound 15] | – | – | – | – | – | – | – | – | Deactivation Δλ/λcon (Conc. 10 µM): −0.1±0.1; Activation V1/2 (mV) (Conc. 10 µM): −3±3 mV; Inactivation ΔV0.3 (Conc. 10 µM): −11±2; Amplitude I/Icon (Conc. 10 µM): 0.7±0.12; Deactivation Δλ/λcon (Conc. 30 µM): −0.01±0.07; Activation V1/2 (mV) (Conc. 30 µM): 0±0 mV; Inactivation ΔV0.3 (Conc. 30 µM): −10±0; Amplitude I/Icon (Conc. 30 µM): 0.5±0.04
16 | COCOc1ccc(C(F)(F)F)cc1NC(=O)NC(=O)[C@H](C)N [Compound 16] | – | – | – | – | 0.003±0.14 | −19±3 | −27±2 | 0.3±0.02 | Deactivation Δλ/λcon (Conc. 10 µM): −0.07±0.1; Activation V1/2 (mV) (Conc. 10 µM): −7±2 mV; Activation V1/2 (mV) [2]: shifts V1/2 of activation to hyperpolarized potentials; Amplitude I/Icon (Conc. 10 µM): 0.6±0.06; Amplitude I/Icon [2]: 0.6; Activation V1/2 (mV) [3]: left shifted the V1/2 of activation; Amplitude I/Icon [3]: 0.3
